According to publication PMC9962029, “Inhibition of Hepatitis B Virus (HBV) by Tachyplesin, a Marine Antimicrobial Cell-Penetrating Peptide” (Pharmaceutics, 2023):
Residues, ends and D or L forms follow the SMILES beside them.

How the values were obtained:
[1] = system: Huh7 cells; assay: MTT cytotoxicity assay in Huh7 cells; format: cell-based, human; conditions: 48 h, up to 12 µM Tpl, three independent experiments
Experimental: (§1) MTT assay was used to identify the non-cytotoxic concentrations of Tpl. Cell viability was measured using MTT (3-(4,5_dimethylthaizol-2-yl)-2,5-diphenyltetrazolium bromide) assay. Approximately 10,000 cells were seeded per well in 96-well plates and kept overnight at 37 °C and 5% CO2 to achieve more than 80% confluency. Thereafter, cells were treated with various concentrations of Tpl for 48 h. After 48 h, media was removed, and cells were washed with PBS. MTT reagent was added at a final concentration of 1 mg/mL and kept for 4 h at 37 °C and 5% CO2. Thereafter, 100 µL of DMSO was added to dissolve the formazan crystals formed, and absorbance was determined at a wavelength of 570 nm with a background wavelength of 630 nm (Multiskan GO microplate spectrophotometer, Thermo Scientific, Waltham, MA, USA).

[2] = system: HepG2 cells; assay: MTT cytotoxicity assay in HepG2 cells; format: cell-based, human; conditions: 48 h, up to 12 µM Tpl, three independent experiments
Experimental: as §1

## CC[C@H](C)[C@@H]1NC(=O)CNC(=O)[C@H](CCCNC(=N)N)NC(=O)[C@H](Cc2ccc(O)cc2)NC(=O)[C@@H]2CSSC[C@H](NC1=O)C(=O)N[C@@H](Cc1ccc(O)cc1)C(=O)N[C@@H](CCCNC(=N)N)C(=O)N[C@@H](CCCNC(=N)N)C(=O)N[C@H](C(=O)N[C@@H](CCCNC(=N)N)C(=O)NCC(=O)N[C@@H](CCCCN)C(N)=O)CSSC[C@H](NC(=O)[C@H](Cc1c[nH]c3ccccc13)NC(=O)[C@@H](N)CCCCN)C(=O)N[C@@H](Cc1ccccc1)C(=O)N[C@@H](CCCNC(=N)N)C(=O)N[C@@H](C(C)C)C(=O)N2 [Tpl] (HELM PEPTIDE1{K.W.C.F.R.V.C.Y.R.G.I.C.Y.R.R.C.R.G.K.[am]}$PEPTIDE1,PEPTIDE1,3:R3-16:R3|PEPTIDE1,PEPTIDE1,7:R3-12:R3$$$V2.0)
[1]
  Cell viability: more than 85%
[2]
  Cell viability: more than 85%
